Experiments:
Experiment in all cases: biochemical
Design in all cases: species or system HEK293/K-562/placenta mixed human extract; Kinobeads chemoproteomic competition binding, quantified by TMT LC-MS/MS, dose response up to 20 uM
GSK3B = GSK3B (Homo sapiens, UniProt P49841)
CHEK1 = CHEK1 (Homo sapiens, UniProt O14757)
TEK = TEK (Homo sapiens, UniProt Q02763)
IRAK1 = IRAK1 (Homo sapiens, UniProt P51617)
HIPK3 = HIPK3 (Homo sapiens, UniProt Q9H422)
AXL = AXL (Homo sapiens, UniProt P30530)
MAP2K1 = MAP2K1 (Homo sapiens, UniProt Q02750)
EPHB6 = EPHB6 (Homo sapiens, UniProt O15197)
RPS6KA5 = RPS6KA5 (Homo sapiens, UniProt O75582)
RPS6KA1 = RPS6KA1 (Homo sapiens, UniProt Q15418)
FGFR1 = FGFR1 (Homo sapiens, UniProt P11362)
MAP2K4 = MAP2K4 (Homo sapiens, UniProt P45985)
SGK3 = SGK3 (Homo sapiens, UniProt Q96BR1)
EPHA4 = EPHA4 (Homo sapiens, UniProt P54764)
PRKCA = PRKCA (Homo sapiens, UniProt P17252)
CAMK2D = CAMK2D (Homo sapiens, UniProt Q13557)
DYRK1A = DYRK1A (Homo sapiens, UniProt Q13627)
RIPK4 = RIPK4 (Homo sapiens, UniProt P57078)
BMX = BMX (Homo sapiens, UniProt P51813)
BUB1 = BUB1 (Homo sapiens, UniProt O43683)
IKBKB = IKBKB (Homo sapiens, UniProt O14920)

Sequence of RPS6KA5 (O75582 whole entry): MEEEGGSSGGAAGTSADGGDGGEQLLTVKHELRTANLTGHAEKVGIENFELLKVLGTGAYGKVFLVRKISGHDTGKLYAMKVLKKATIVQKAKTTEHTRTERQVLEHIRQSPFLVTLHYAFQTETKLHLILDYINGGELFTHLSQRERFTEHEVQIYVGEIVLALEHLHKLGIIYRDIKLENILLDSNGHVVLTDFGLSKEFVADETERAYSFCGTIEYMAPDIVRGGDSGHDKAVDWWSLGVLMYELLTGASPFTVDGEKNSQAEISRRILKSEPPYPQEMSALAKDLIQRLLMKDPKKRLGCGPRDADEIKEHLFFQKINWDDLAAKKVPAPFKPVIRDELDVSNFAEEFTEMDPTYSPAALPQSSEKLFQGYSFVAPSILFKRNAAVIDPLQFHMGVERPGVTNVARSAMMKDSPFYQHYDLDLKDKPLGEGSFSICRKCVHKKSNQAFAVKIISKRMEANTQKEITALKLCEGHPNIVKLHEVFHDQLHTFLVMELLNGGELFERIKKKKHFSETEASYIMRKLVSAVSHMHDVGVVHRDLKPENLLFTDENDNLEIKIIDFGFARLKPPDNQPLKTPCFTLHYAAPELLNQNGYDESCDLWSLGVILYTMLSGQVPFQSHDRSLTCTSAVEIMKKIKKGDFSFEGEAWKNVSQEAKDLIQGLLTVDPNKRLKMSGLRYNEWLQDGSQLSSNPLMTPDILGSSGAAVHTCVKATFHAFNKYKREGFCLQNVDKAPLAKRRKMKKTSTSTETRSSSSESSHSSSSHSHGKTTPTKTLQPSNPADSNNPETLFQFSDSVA
Sequence of IRAK1 (P51617 whole entry): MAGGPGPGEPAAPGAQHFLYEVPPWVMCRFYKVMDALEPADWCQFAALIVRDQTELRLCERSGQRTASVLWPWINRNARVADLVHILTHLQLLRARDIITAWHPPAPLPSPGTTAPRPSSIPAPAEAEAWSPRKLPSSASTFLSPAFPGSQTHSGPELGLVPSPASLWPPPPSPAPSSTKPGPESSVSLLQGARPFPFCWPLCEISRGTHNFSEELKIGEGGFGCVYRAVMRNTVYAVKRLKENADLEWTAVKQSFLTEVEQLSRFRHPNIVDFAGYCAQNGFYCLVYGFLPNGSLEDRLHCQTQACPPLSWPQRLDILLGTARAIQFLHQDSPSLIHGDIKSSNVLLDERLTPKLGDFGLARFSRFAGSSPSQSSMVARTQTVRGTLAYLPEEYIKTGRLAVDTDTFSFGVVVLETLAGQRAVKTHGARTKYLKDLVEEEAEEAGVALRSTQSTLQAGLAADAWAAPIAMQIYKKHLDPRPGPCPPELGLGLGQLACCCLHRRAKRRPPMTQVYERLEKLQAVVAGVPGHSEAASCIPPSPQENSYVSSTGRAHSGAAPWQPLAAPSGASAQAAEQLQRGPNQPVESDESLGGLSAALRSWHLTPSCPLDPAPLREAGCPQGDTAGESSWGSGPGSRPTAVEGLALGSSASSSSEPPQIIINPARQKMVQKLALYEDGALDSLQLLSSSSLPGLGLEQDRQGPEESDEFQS
Sequence of HIPK3 (Q9H422 whole entry): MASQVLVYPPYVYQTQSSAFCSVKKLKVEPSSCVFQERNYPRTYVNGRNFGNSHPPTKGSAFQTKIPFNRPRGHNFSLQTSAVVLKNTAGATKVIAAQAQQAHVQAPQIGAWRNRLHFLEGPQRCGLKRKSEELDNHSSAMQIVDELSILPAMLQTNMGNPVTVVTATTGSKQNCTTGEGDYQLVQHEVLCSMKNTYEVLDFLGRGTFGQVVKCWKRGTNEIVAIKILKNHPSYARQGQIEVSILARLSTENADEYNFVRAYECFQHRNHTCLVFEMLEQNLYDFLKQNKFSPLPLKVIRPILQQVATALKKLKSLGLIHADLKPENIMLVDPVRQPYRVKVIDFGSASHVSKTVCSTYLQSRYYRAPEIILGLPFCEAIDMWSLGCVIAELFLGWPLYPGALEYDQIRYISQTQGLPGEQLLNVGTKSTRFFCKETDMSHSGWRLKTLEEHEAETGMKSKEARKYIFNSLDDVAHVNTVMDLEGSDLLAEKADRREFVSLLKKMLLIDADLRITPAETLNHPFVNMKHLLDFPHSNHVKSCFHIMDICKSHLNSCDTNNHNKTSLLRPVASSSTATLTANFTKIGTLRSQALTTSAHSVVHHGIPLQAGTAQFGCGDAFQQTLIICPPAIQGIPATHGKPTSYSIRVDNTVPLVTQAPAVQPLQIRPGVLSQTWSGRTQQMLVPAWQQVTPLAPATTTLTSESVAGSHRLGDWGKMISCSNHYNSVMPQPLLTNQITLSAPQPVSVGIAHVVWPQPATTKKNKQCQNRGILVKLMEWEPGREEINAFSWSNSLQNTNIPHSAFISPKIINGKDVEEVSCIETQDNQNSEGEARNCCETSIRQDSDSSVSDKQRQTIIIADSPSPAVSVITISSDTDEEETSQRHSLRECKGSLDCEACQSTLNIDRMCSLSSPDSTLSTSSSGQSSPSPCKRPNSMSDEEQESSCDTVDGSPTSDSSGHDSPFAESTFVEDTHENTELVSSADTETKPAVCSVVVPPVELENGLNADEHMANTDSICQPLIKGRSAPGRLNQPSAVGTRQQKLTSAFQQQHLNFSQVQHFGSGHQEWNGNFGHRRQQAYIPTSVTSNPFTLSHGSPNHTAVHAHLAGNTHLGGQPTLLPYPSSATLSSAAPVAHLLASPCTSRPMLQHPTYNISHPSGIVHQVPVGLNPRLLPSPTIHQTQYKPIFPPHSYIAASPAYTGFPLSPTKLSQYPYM
Sequence of RIPK4 (P57078 whole entry): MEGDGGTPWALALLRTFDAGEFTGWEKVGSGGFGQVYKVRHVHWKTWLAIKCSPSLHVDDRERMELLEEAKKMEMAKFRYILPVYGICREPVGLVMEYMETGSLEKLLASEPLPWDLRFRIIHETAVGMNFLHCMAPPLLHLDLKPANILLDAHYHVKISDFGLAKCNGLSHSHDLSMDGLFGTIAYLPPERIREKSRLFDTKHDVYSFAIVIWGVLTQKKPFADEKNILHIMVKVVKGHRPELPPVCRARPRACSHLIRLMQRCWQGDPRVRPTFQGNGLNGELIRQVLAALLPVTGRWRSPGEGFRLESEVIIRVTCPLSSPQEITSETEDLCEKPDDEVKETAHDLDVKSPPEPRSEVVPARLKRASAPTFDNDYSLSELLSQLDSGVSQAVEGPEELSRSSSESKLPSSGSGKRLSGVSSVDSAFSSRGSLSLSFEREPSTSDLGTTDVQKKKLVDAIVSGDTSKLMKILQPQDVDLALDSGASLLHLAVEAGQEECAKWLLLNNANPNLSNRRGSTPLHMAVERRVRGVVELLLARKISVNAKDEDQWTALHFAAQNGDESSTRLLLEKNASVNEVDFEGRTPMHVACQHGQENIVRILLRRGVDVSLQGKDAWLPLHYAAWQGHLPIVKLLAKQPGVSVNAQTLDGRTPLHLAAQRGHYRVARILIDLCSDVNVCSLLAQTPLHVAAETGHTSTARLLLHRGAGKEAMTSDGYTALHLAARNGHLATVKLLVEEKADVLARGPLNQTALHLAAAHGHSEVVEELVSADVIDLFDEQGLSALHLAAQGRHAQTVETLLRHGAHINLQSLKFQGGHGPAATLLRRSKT
Sequence of RPS6KA1 (Q15418 whole entry): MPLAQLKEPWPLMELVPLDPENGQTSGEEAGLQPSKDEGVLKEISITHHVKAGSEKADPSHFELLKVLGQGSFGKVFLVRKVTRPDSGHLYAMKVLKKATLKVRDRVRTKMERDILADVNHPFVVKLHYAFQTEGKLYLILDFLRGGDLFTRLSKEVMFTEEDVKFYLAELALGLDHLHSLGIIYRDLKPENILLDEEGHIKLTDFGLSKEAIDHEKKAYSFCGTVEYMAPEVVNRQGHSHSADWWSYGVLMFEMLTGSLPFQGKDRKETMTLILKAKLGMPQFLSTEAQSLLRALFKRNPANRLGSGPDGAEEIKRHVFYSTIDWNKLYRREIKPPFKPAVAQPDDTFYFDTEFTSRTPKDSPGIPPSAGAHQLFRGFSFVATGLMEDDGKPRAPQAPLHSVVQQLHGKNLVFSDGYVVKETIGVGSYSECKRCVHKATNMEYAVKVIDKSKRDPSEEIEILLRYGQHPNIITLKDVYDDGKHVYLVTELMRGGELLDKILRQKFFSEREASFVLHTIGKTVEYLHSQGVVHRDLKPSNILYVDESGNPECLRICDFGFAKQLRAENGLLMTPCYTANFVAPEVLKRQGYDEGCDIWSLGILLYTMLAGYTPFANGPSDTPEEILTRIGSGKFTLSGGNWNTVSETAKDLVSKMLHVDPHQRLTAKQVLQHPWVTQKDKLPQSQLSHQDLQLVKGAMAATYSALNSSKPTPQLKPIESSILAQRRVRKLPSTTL
Sequence of GSK3B (P49841 whole entry): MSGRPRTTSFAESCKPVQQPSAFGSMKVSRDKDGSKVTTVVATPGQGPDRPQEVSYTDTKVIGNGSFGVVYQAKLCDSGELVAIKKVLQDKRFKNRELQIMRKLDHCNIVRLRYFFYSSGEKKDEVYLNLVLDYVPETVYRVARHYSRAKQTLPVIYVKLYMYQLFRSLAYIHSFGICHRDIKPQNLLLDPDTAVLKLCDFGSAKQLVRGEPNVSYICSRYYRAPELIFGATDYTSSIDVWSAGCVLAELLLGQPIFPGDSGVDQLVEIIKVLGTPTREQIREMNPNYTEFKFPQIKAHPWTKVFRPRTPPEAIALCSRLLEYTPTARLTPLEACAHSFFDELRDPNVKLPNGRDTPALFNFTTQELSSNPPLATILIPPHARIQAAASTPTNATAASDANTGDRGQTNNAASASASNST

## COc1nc(N[C@H]2CC[C@H](NS(=O)(=O)CC(C)C)CC2)nc2[nH]nc(N3CCOC[C@H]3C)c12 [compound 39, N-(trans-4-((4-Methoxy-3-((R)-3-methylmorpholino)-1H-pyrazolo[3,4-d]pyrimidin-6-yl)amino)cyclohexyl)-2-methylpropane-1-sulfonamide]
GSK3B
  IC50: ≥ 20 µM
CHEK1
  IC50: ≥ 20 µM
TEK
  IC50: ≥ 20 µM
IRAK1
  IC50: ≥ 20 µM
HIPK3
  IC50: ≥ 20 µM
AXL
  IC50: ≥ 20 µM
MAP2K1
  IC50: ≥ 20 µM
EPHB6
  IC50: 3.3 µM
RPS6KA5
  IC50: ≥ 20 µM
RPS6KA1
  IC50: ≥ 20 µM
FGFR1
  IC50: ≥ 20 µM
MAP2K4
  IC50: ≥ 20 µM
SGK3
  IC50: ≥ 20 µM
EPHA4
  IC50: ≥ 20 µM
PRKCA
  IC50: ≥ 20 µM
CAMK2D
  IC50: ≥ 20 µM
DYRK1A
  IC50: ≥ 20 µM
RIPK4
  IC50: ≥ 20 µM
BMX
  IC50: ≥ 20 µM
BUB1
  IC50: ≥ 20 µM
IKBKB
  IC50: ≥ 20 µM

From PMC6407917, “Identification of GSK3186899/DDD853651 as a Preclinical Development Candidate for the Treatment of Visceral Leishmaniasis” (Journal of Medicinal Chemistry, 2018)
